Results reported in ChEMBL document CHEMBL5728247, “Kinase inhibitors for the treatment of disease” (2021).

What follows are compounds tested against Tyrosine-protein kinase BTK (Homo sapiens, UniProt Q06187) (assay: Kinase Assay: 1. Optimization of kinase concentration required to determine ATP Km,app. The assay was first performed at a high concentration of ATP (1 mM) against a dilution series of kinase in order to determine the amount of kinase required to elicit an approximately 80% change between the minimum and maximum TR-FRET emission ratios (the EC80 value).2. Determination of ATP Km,app. Using the concentration of enzyme determined in step 1, the assay was then performed against a dilution series of ATP in order to determine the amount of ATP required to elicit a 50% change between the minimum and maximum TR-FRET emission ratios (the EC50 value). This concentration of ATP was referred to as the “apparent” Km value for ATP, or the ATP Km,app.3. Optimization of kinase concentration required for assay at ATP Km,app. Using the ATP Km,app concentration of ATP determined in step 2, the kinase titration was repeated in order to determine the concentration of kinase required to elicit an approximately 80% change between the minimum and maximum TR-FRET emission ratios at the ATP Km,app concentration of ATP (the EC80 value). This was the concentration of kinase that will be used in an assay to determine an IC50 value for a compound of the invention.).
Tyrosine-protein kinase BTK, sequence (Q06187 whole entry): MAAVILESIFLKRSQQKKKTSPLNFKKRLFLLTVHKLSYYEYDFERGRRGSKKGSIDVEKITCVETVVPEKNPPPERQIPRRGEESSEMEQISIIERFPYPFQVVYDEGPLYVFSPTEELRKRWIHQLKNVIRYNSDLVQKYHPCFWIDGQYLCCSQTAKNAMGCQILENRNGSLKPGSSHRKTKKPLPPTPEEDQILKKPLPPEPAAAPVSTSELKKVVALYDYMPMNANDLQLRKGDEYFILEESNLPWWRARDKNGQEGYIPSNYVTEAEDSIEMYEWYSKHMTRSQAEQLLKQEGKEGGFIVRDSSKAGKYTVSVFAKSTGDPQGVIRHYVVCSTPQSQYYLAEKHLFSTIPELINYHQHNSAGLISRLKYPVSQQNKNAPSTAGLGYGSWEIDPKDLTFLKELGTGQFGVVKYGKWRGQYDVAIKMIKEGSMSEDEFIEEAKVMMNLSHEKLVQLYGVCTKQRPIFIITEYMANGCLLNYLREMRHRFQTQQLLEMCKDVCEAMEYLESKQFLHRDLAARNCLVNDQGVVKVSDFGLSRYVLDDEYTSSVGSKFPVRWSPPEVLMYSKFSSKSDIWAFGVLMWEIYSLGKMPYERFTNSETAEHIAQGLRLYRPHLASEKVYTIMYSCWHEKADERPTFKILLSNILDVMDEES

Compared with `C=CC(=O)Nc1cccc(N(C(=O)OCc2ccccc2)c2ccnc(Nc3cnn(CCN4CCOCC4)c3)n2)c1`, `C=CC(=O)Nc1cccc(N(C(=O)OCc2ccccc2)c2ccnc(Nc3cnn(C4CCOCC4)c3)n2)c1` is 1.8-fold lower in IC50: 5.74 nM for the first, 3.12 nM for the second. The second is the more potent here.

In the case of `C=CC(=O)Nc1cccc(N(C(=O)OCc2ccccc2)c2ccnc(Nc3cnn(C)c3)n2)c1`, the IC50 is reported as 5.13 nM.
